According to publication PMC4669759 (Cell Death & Disease, 2015):
pKi: −log10 of the molar value. Where “and” joins values, the source holds several entries; their conditions need not be identical. Equal values may be shown once.

Experiments:
MCL-1 = MCL-1 (Homo sapiens, UniProt Q07820); assay: TR-FRET binding affinity assay, MCL-1
Method: (§1) TR-FRET-binding affinity assays were performed for BCL-2, BCL-XL, and MCL-1 in 4.52 mM monobasic potassium phosphate, 15.48 mM dibasic potassium phosphate, 1 mM sodium EDTA, 0.05% Pluronic F-68 detergent, 50 mM sodium chloride, and 1 mM DTT (pH 7.5) as described previously for BCL-XL.[6] For MCL-1 assays, GST-tagged MCL-1 (1 nM) was mixed with 100 nM f-Bak, 1 nM Tb-labeled anti-GST antibody, and compound at room temperature (RT) for 60 min. Fluorescence was measured on an Envision plate reader (Perkin-Elmer, Waltham, MA, USA) using a 340/35 nm excitation filter and 520/525 (f-Bak) and 495/510 nm (Tb-labeled anti-GST antibody) emission filters.

BCL-2 = BCL-2 (Homo sapiens, UniProt P10415); assay: TR-FRET binding affinity assay, BCL-2
BCL-2, sequence (P10415 whole entry): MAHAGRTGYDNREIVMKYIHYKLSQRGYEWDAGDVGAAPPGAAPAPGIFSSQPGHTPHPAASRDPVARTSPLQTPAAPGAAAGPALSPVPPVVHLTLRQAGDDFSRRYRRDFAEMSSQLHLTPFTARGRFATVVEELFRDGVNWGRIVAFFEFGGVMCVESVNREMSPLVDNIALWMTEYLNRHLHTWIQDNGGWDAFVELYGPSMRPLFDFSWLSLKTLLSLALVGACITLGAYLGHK
Method: as §1

MCL1 mRNA = MCL1 mRNA by reverse transcriptase-PCR in HCC-1806 cells; assay type: cell-based; conditions: 8 h
Method: Figure 1 MCL-1 levels are elevated in cancer cells after treatment with MCL-1-binding small molecules. (a) H929 multiple myeloma cells were treated for 4 h with 10 μM A-1210477 before immunopreciptating MCL-1. […] A control H929 lysate was run in lane 1, and an immunoprecipitation with a non-specific antibody (Ig) was run in lane 2. The positions of molecular weight markers (specified in kiloDaltons) are indicated on the left. (b) HCC-1806 breast cancer cells were incubated with increasing concentrations of A-1210477 (0.1, 0.5, 1, 5, 10, 15, or 20 μM) or bortezomib (2, 10, or 50 nM) for 8 h before assessing MCL-1 and NOXA levels by immunoblotting. β-Actin was probed as a protein loading control. The lower graph depicts reverse transcriptase-PCR quantification of MCL1 mRNA from HCC-1806 cells treated for 8 h with similar concentrations of A-1210477. (c) HCC-1806 cells were incubated with increasing concentrations (0.1, 0.5, 1, 5, 10, and 20 μM) of A-954248, A-962653, or A-1248767 for 24 h before assessing MCL-1 and BCL-XL levels by immunoblotting. β-Actin was probed as a protein loading control

H929 cells = assay: Cell viability, H929 cells; assay type: cell-based, human; conditions: H929, 48 h
Method: Figure 4 Indole-2-carboxylic acids induce the hallmarks of apoptosis in MCL-1-dependent cancer cell line H929. (a) Digitonin-permeabilized H929 cells were treated with 10 μM BH3 peptides for 4 h, and intact H929 cells were incubated with increasing concentrations (0.1–10 μM) of A-1208746 for 4 h before assessing the levels of cytochrome c released into the cytosol. (b) H929 and RS4;11 cells were incubated with increasing concentrations of MCL-1 inhibitors or the BCL-2-selective inhibitor ABT-199 (venetoclax) for 48 h before determining cell viability. Cell killing IC50s are plotted with each value representing the mean of three separate experiments. Error bars represent the S.E.M. (c) H929 cells were incubated with increasing concentrations of MCL-1 inhibitors in the presence or absence of the pan-caspase inhibitor QVD (100 μM) for 4 h before assessing caspase-3/-7 activation, mitochondrial membrane polarization, and the exposure of phosphatidylserine. […]
Adherent cell lines were seeded at 50 000 cells per well in 96-well plates and treated for 48 h with compounds diluted in half-log steps starting at 30 μM and ending at 0.001 μM. […] Effects on proliferation and viability were determined using CellTiter-Glo reagent from Promega (Madison, WI, USA) according to the manufacturer's instructions. IC50 values were determined by non-linear regression analysis of the concentration response data.

MCL-1, sequence (Q07820 whole entry): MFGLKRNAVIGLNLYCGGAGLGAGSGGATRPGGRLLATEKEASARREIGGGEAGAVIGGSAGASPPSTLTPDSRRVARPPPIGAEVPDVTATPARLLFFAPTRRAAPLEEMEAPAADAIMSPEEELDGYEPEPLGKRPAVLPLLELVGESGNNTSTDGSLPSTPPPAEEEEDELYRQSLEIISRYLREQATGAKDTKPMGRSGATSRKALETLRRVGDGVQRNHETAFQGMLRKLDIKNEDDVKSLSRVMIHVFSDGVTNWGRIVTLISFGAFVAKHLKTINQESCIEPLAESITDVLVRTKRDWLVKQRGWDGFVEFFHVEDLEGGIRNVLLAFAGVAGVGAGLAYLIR

SMILES: Cc1nn(C)c(COc2ccc(N3CCN(S(=O)(=O)N(C)C)CC3)cc2)c1-c1cccc2c(CCCOc3cccc4ccccc34)c(C(=O)O)n(CCN3CCOCC3)c12 [A-1210477]
- pKi (MCL-1): 9.30 to 9.40 and 9.34
- pKi (BCL-2): 6.88
- effect on MCL1 mRNA (MCL1 mRNA): No corresponding increase in MCL1 mRNA
- cell killing IC50 (H929 cells): low-μM range
